Measured values from ChEMBL document CHEMBL5604062, “ASAP - ZIKV NS2B-NS3 protease fluorescence dose response” (2024).
Values joined by “and” are separate entries in the source; they are usually repeats but may differ in a detail not shown here. Identical values can stand only once.

Target: Nonstructural protein 3 (Zika virus, UniProt A0A024AXB9)
Test: Functional biochemical assay to identify treatments for viral infectious disease that targets Zika NS2B-NS3 protease. Utilizing a direct enzyme activity measurement method, reading the fluorescence intensity is used to characterize the relative potency of inhibitors as IC50.
Design: species or system PRVABC59

Nonstructural protein 3, sequence (A0A024AXB9 whole entry): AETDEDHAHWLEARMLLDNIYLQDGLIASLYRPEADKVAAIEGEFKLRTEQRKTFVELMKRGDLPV

IC50, 22.1 µM:
NCc1cccc(NC(=O)c2cc(NC(=O)OCc3ccccc3)cc(C3CC3)c2)c1

IC50, 30.8 µM:
O=C(Nc1cc(Cl)cc(C(=O)Nc2cccc(-n3nn[nH]c3=O)c2)c1)OCc1ccccc1

IC50, 10.5 µM:
NCCc1cccc(-c2cccc([C@@H](NC(=O)OCc3ccccc3)C(=O)Nc3cccc(CN)c3)c2)c1

IC50, 40.8 µM:
O=C(Nc1cc(Cl)cc(C(=O)Nc2cccc(-c3nnn[nH]3)c2)c1)OCc1ccccc1

IC50, 48.5 µM:
NCc1cccc(NC(=O)c2cncc(Cl)c2)c1

IC50, 13.1 µM and 12.9 µM:
C[C@@H](N)c1cccc(NC(=O)[C@H]2[C@H]3CCCCC[C@H]3[C@H]2NC(=O)OCc2ccccc2)c1

IC50, 35.3 µM:
COc1ccc(-c2cccc([C@@H](NC(=O)OCc3ccccc3)C(=O)Nc3cccc(CN)c3)c2)cn1

IC50, 39.7 µM:
N[C@@H](CCO)c1cccc(NC(=O)c2cc(Cl)cc(NC(=O)OCc3ccccc3)c2)c1

IC50, 0.114 µM:
NCc1cc(Cl)cc(C(=O)Nc2ccc3c(c2)CNC3)c1

IC50, > 99.5 µM:
Brc1csc(CNCCc2nnc[nH]2)c1, FC(F)(F)c1nc(CNCc2cocn2)cs1, COc1nc(Cl)c(CSc2nc(C)co2)s1, NCc1cccc(NC(=O)[C@H]2C[C@@H](C(F)(F)F)C[C@@H](C(F)(F)F)C2)c1, C[C@H]1CN(C)C[C@@H](C(=O)Nc2cccc(CN)c2)O1, C[C@H]1C[C@@H](C(=O)Nc2cccc(CN)c2)CC(=O)N1, CCn1c(=O)c(N2CC[C@H](CO)C2)nc2cc(C(=O)O)ccc21, NCc1cccc(NC(=O)C2CCNCC2)c1, CC1(C)CCC(F)(F)C[C@H]1C(=O)Nc1cccc(CN)c1, OCCCCCc1nc(-c2ccc(Br)o2)no1, CCn1ncc2c(C(=O)Nc3cccc(CN)c3)cc(C)nc21, Cn1cc([C@@H]2C[C@H](C(=O)Nc3cccc(CN)c3)CC(=O)N2)cn1, O=C(NCCc1nc2ccccc2[nH]1)c1cc2ccc(F)cc2s1, Cc1cc(C(=O)Nc2cccc(CN)c2)nc(C)n1, O=C(Nc1cc(Cl)cc(C(=O)Nc2cccc(CN3CCCC3=O)c2)c1)OCc1ccccc1, Cc1cc(C(=O)Nc2cccc(CN)c2)c2c(C)nn(CC(=O)NC(C)C)c2n1, CN(C)[C@@H]1CCC[C@@H](C(=O)Nc2cccc(CN)c2)C1, Cc1cc(C(=O)Nc2cccc(CN)c2)cc(O)n1, Cc1ccc(S(=O)(=O)CCCn2ccc3sccc3c2=O)cc1, c1coc(CSCc2nc(-c3nc[nH]n3)no2)c1, NCc1cccc(NC(=O)[C@@H]2[C@H](N)[C@@H]3CCCCC[C@@H]32)c1, NCc1cccc(NC(=O)[C@@H]2CCC[C@]3(CCNC3=O)C2)c1, N#CCc1cccc(NC(=O)c2cc(Cl)cc(NC(=O)OCc3ccccc3)c2)c1, CC(C)[C@@H]1CC[C@@H](C)C[C@H]1C(=O)Nc1cccc(CN)c1, O=C(Nc1ccc(Cl)cc1C(=O)Nc1cccc(C2CCNCC2)c1)OCc1ccccc1, COc1ccc2nc(C)cc(C(=O)Nc3cccc(CN)c3)c2c1, NCc1cccc(NC(=O)[C@@]23CCC[C@H](C2)N3C(=O)OCc2ccccc2)c1, NCc1cccc(NC(=O)[C@@H]2CCC[C@H](OC(F)(F)F)C2)c1, Cc1cc(C(=O)Nc2cccc(CN)c2)cc(NCC(F)(F)F)n1, Cc1cc(C(=O)Nc2cccc(CN)c2)c2nc(C)n(C)c2n1, C[C@@H]1C[C@@H](C(=O)Nc2cccc(CN)c2)CCO1, C[C@@H]1CCC[C@H](C(=O)Nc2cccc(CN)c2)O1, Cc1cc(C(F)(F)F)nc(C(=O)Nc2cccc(CN)c2)n1, Cc1cc(C(=O)Nc2cccc(CN)c2)c2c(C)n[nH]c2n1, Cc1cc(C(=O)Nc2cccc(CN)c2)cc(NCc2cnn(C)c2)n1, NCc1cccc(NC(=O)[C@H]2COCC3(CCC3)O2)c1, Brc1cnc(Sc2ncc[nH]2)nc1, C[C@H]1CN(C)C[C@H](C(=O)Nc2cccc(CN)c2)O1, c1cc(-c2nnc(NCc3nnn[nH]3)s2)no1, COc1ccc(-n2nnnc2SC(F)F)cc1, CS(=O)(=O)Nc1cccc(NC(=O)c2cc(Cl)cc(NC(=O)OCc3ccccc3)c2)c1, CC(C)(C)OC(=O)NCc1cc(Br)cc(NC(=O)c2cc(Cl)cc(NC(=O)OCc3ccccc3)c2)c1, CN(C)CC[C@H](NC(=O)c1cc(Cl)cc(NC(=O)OCc2ccccc2)c1)c1ccccc1, CCc1cccc(NC(=O)[C@]2(Oc3ccc(Br)cc3)CCNC3(CC3)C2)c1, CS(=O)(=O)c1cccc(NC(=O)c2cc(Cl)cc(NC(=O)OCc3ccccc3)c2)c1, C[C@H]1Oc2ccc(NC(=O)c3cc(Cl)cc(NC(=O)OCc4ccccc4)c3)cc2NC1=O, c1cc(Cc2noc(CCc3cscn3)n2)no1, NCc1cccc(NC(=O)[C@H]2CCOC3(CCC3)C2)c1, CCn1ncc(-c2noc3nc(C)cc(C(=O)Nc4cccc(CN)c4)c23)c1C, NCc1cccc(NC(=O)[C@H]2CCc3nnc(C4CC4)n3C2)c1, C[C@H]1CN(Cc2ccccc2)C[C@@H](C(=O)Nc2cccc(CN)c2)O1, COc1ccc2c(c1)c(C(=O)Nc1cccc(CN)c1)c(C)n2C1CCCC1, Cc1cc(Cl)cc(C(=O)Nc2cccc(CN)c2)n1, O=S(=O)(Cc1nnc(Cc2ccccc2)o1)c1ccc(O)cc1, FC(F)(F)c1nnc(COc2cncnc2)s1, CN1CCc2c(cccc2NC(=O)c2cc(Cl)cc(NC(=O)OCc3ccccc3)c2)C1, CSCc1nnc(SCc2ccncc2)o1, NCc1cccc(NC(=O)[C@@H]2CCCCN2)c1

IC50, 1.87 µM:
NCc1cccc(NC(=O)c2cccc(CN)c2)c1

IC50, 3.42 µM:
C[C@@H](N)c1cc(Cl)cc(C(=O)Nc2cccc(CN)c2)c1

IC50, 5.55 µM:
NCc1cccc(NC(=O)c2cc(Cl)cc(Cl)c2)c1

IC50, 43.6 µM:
Cc1ccc(S(=O)(=O)N2Cc3ccccc3C[C@@H](C(=O)Nc3cccc(CN)c3)C2)cc1

IC50, 48.7 µM:
COC1(C(=O)N[C@H](CC(=O)Nc2cccc(CN)c2)c2ccc(OCc3ccccc3)c(Br)c2)CC1

IC50, 4.73 µM:
NCc1cccc(NC(=O)c2cc(Br)cc3[nH]ccc23)c1

IC50, 18.7 µM:
CC[C@@H](Cc1nnn[nH]1)c1ccc(NC(=O)c2cc(Cl)cc(NC(=O)OCc3ccccc3)c2)cc1

IC50, 44.5 µM:
CN(C)CCc1ccc(NC(=O)c2cc(Cl)cc(NC(=O)OCc3ccccc3)c2)cc1

IC50, 70.3 µM:
CN(C)Cc1ccc(NC(=O)c2cc(Cl)cc(NC(=O)OCc3ccccc3)c2)cc1

IC50, 8.18 µM:
CCOc1cccc(-c2ccc(S(=O)(=O)Nc3cc(F)c(Cl)cc3C(=O)O)cc2)c1

IC50, 3.05 µM:
NCc1cccc(NC(=O)c2cc(Cl)cc3c2cnn3CC2CC2)c1

IC50, 6.83 µM:
Cc1cc(C(=O)N[C@H](CC(=O)Nc2cccc(CN)c2)c2ccc(OCc3ccccc3)c(Br)c2)sn1

IC50, 19.5 µM:
NCc1cccc(NC(=O)c2cccc3c2CCC3)c1

IC50, 55.6 µM:
NCc1cccc(NC(=O)c2c(F)c(Cl)cc(NC(=O)OCc3ccccc3)c2F)c1
